# Results as given in patent US8822503B2, “2-pyridone compounds” (Taisho Pharmaceutical Co., Ltd, priority 2009, dated 2014).
# Molecular target: T1, human liver GK (Homo sapiens, UniProt P35557)
# T1 construct: GST (glutathione S-transferase) (N); made in house; host or cells: E. coli
# T1 sequence (P35557 1-466 isoform P35557-2): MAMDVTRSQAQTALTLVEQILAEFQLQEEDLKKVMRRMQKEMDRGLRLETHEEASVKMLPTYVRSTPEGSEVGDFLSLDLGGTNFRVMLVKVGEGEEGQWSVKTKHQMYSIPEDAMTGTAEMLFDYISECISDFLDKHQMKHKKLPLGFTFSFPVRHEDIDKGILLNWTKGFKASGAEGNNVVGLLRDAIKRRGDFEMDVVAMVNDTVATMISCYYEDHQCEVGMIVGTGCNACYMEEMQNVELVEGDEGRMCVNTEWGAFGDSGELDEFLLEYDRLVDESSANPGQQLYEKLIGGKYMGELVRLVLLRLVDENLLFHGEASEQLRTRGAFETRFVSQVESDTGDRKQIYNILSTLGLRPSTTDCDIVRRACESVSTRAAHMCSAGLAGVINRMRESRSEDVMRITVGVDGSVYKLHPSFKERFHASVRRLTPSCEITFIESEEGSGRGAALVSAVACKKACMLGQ
# Assay: GK activation test
# Type: biochemical
# Settings: test compound concentration needed to activate 50% of maximum activation ability; 4 mM 14C-labeled glucose, 2 mM ATP, room temperature, 20 minutes
# How it was run: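 GST-tagged human liver GK from E. coli (0.24 μg/well) with 4 mM 14C-glucose, 2 mM ATP in Hepes-KOH pH 7.1, KCl, MgCl2, DTT, 1% DMSO, 20 min room temperature. Labeled glucose 6-phosphate captured on anion resin, eluted and counted. EC50 = concentration giving half of maximal activation.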
row,SMILES,EC50
1,"CSc1ccc(/C(=C\[C@H]2CCC(=O)C2)c2ccc(C)c(=O)[nH]2)cc1Cl [Example 1-67, 6-{(E)-1-[3-Chloro-4-(methylsulfanyl)phenyl]-2-[(1S)-3-oxocyclopentyl]ethenyl}-3-methylpyridin-2(1H)-one]",10 to 500 nM
2,"Cc1ccc(/C(=C/[C@H]2CCC(=O)C2)c2ccc(S(C)(=O)=O)c(Cl)c2)[nH]c1=O [Example 1-68, 6-{(E)-1-[3-Chloro-4-(methylsulfonyl)phenyl]-2-[(1S)-3-oxocyclopentyl]ethenyl}-3-methylpyridin-2(1H)-one]",500 to 3000 nM
3,"CCc1ccc(/C(=C/[C@H]2CCC(=O)C2)c2ccc(SC)c(Cl)c2)[nH]c1=O [Example 1-69, 6-{(E)-1-[3-Chloro-4-(methylsulfanyl)phenyl]-2-[(1S)-3-oxocyclopentyl]ethenyl}-3-ethylpyridin-2(1H)-one]",10 to 500 nM
4,"CCc1ccc(/C(=C/[C@H]2CCC(=O)C2)c2ccc(S(C)(=O)=O)c(Cl)c2)[nH]c1=O [Example 1-70, 6-{(E)-1-[3-Chloro-4-(methylsulfonyl)phenyl]-2-[(1S)-3-oxocyclopentyl]ethenyl}-3-ethylpyridin-2(1H)-one]",10 to 500 nM
5,"CSc1ccc(/C(=C\[C@H]2CCC(=O)C2)c2ccc(C3CC3)c(=O)[nH]2)cc1Cl [Example 1-71, 6-{(E)-1-[3-Chloro-4-(methylsulfanyl)phenyl]-2-[(1S)-3-oxocyclopentyl]ethenyl}-3-cyclopropylpyridin-2(1H)-one]",10 to 500 nM
6,"CS(=O)(=O)c1ccc(/C(=C\[C@H]2CCC(=O)C2)c2ccc(C3CC3)c(=O)[nH]2)cc1Cl [Example 1-72, 6-{(E)-1-[3-Chloro-4-(methylsulfonyl)phenyl]-2-[(1S)-3-oxocyclopentyl]ethenyl}-3-cyclopropylpyridin-2(1H)-one]",10 to 500 nM
7,"Cc1ccc(/C(=C/[C@H]2CCC(=O)C2)c2ccc(SCCCO)c(Cl)c2)[nH]c1=O [Example 1-73, 6-{(E)-1-{3-Chloro-4-[(3-hydroxypropyl)sulfanyl]phenyl}-2-[(1S)-3-oxocyclopentyl]ethenyl}-3-methylpyridin-2(1H)-one]",10 to 500 nM
8,"Cc1ccc(/C(=C/[C@H]2CCC(=O)C2)c2ccc(S(=O)(=O)CCCO)c(Cl)c2)[nH]c1=O [Example 1-74, 6-{(E)-1-{3-Chloro-4-[(3-hydroxypropyl)sulfonyl]phenyl}-2-[(1S)-3-oxocyclopentyl]ethenyl}-3-methylpyridin-2(1H)-one]",500 to 3000 nM
9,"CCc1ccc(/C(=C/[C@H]2CCC(=O)C2)c2ccc(SCCCO)c(Cl)c2)[nH]c1=O [Example 1-75, 6-{(E)-1-{3-Chloro-4-[(3-hydroxypropyl)sulfanyl]phenyl}-2-[(1S)-3-oxocyclopentyl]ethenyl}-3-ethylpyridin-2(1H)-one]",10 to 500 nM
10,"CCc1ccc(/C(=C/[C@H]2CCC(=O)C2)c2ccc(S(=O)(=O)CCCO)c(Cl)c2)[nH]c1=O [Example 1-76, 6-{(E)-1-{3-Chloro-4-[(3-hydroxypropyl)sulfonyl]phenyl}-2-[(1S)-3-oxocyclopentyl]ethenyl}-3-ethylpyridin-2(1H)-one]",10 to 500 nM
11,"CCc1ccc(/C(=C/[C@H]2CCC(=O)C2)c2ccc(SCCCN(CC)CC)c(Cl)c2)[nH]c1=O [Example 1-77, 6-{(E)-1-(3-Chloro-4-{[3-(diethylamino)propyl]sulfanyl}phenyl)-2-[(1S)-3-oxocyclopentyl]ethenyl}-3-ethylpyridin-2(1H)-one]",10 to 500 nM
12,"CCc1ccc(/C(=C/[C@H]2CCC(=O)C2)c2ccc(S(=O)(=O)CCCN(CC)CC)c(Cl)c2)[nH]c1=O [Example 1-78, 6-{(E)-1-(3-Chloro-4-{[3-(diethylamino)propyl]sulfonyl}phenyl)-2-[(1S)-3-oxocyclopentyl]ethenyl}-3-ethylpyridin-2(1H)-one]",10 to 500 nM
13,"CCN(CC)CCCOc1ccc(/C(=C\[C@H]2CCC(=O)C2)c2ccc(C3CC3)c(=O)[nH]2)cc1Cl [Example 1-79, 6-{(E)-1-{3-Chloro-4-[3-(diethylamino)propoxy]phenyl}-2-[(1S)-3-oxocyclopentyl]ethenyl}-3-cyclopropylpyridin-2(1H)-one]",10 to 500 nM
14,"CCN(CC)CCCCOc1ccc(/C(=C\[C@H]2CCC(=O)C2)c2ccc(C3CC3)c(=O)[nH]2)cc1Cl [Example 1-80, 6-{(E)-1-{3-Chloro-4-[4-(diethylamino)butoxy]phenyl}-2-[(1S)-3-oxocyclopentyl]ethenyl}-3-cyclopropylpyridin-2(1H)-one]",10 to 500 nM
15,"O=C1CC[C@H](/C=C(\c2ccc(OCCCO)c(Cl)c2)c2ccc(C(F)(F)F)c(=O)[nH]2)C1 [Example 1-81, 6-{(E)-1-[3-Chloro-4-(3-hydroxypropoxy)phenyl]-2-[(1S)-3-oxocyclopentyl]ethenyl}-3-(trifluoromethyl)pyridin-2(1H)-one]",500 to 3000 nM

# The remaining lines, values ahead:
row,EC50,SMILES
1,10 to 500 nM,"O=C1CC[C@H](/C=C(\c2ccc(SCCCO)c(Cl)c2)c2ccc(C(F)(F)F)c(=O)[nH]2)C1 [Example 1-82, 6-{(E)-1-{3-Chloro-4-[(3-hydroxypropyl)sulfanyl]phenyl}-2-[(1S)-3-oxocyclopentyl]ethenyl}-3-(trifluoromethyl)pyridin-2(1H)-one]"
2,500 to 3000 nM,"CCN(CC)CCCOc1ccc(/C(=C\[C@H]2CCC(=O)C2)c2ccc(C(F)(F)F)c(=O)[nH]2)cc1Cl [Example 1-83, 6-{(E)-1-{3-Chloro-4-[3-(diethylamino)propoxy]phenyl}-2-[(1S)-3-oxocyclopentyl]ethenyl}-3-(trifluoromethyl)pyridin-2(1H)-one]"
3,500 to 3000 nM,"CCN(CC)CCCSc1ccc(/C(=C\[C@H]2CCC(=O)C2)c2ccc(C(F)(F)F)c(=O)[nH]2)cc1Cl [Example 1-84, 6-{(E)-1-(3-Chloro-4-{[3-(diethylamino)propyl]sulfanyl}phenyl)-2-[(1S)-3-oxocyclopentyl]ethenyl}-3-(trifluoromethyl)pyridin-2(1H)-one]"
4,10 to 500 nM,"CSc1ccc(/C(=C\[C@H]2CCC(O)C2)c2ccc(C3CC3)c(=O)[nH]2)cc1Cl (stereo partly drawn) [Example 1-85, 6-{(E)-1-[3-Chloro-4-(methylsulfanyl)phenyl]-2-[(1S)-3-hydroxycyclopentyl]ethenyl}-3-cyclopropylpyridin-2(1H)-one]"
5,500 to 3000 nM,"CCN(CC)CCCOc1ccc(/C(=C\[C@H]2CCC(O)C2)c2ccc(C(F)(F)F)c(=O)[nH]2)cc1Cl (stereo partly drawn) [Example 1-86, 6-{(E)-1-{3-Chloro-4-[3-(diethylamino)propoxy]phenyl}-2-[(1S)-3-hydroxycyclopentyl]ethenyl}-3-(trifluoromethyl)pyridin-2(1H)-one]"
6,500 to 3000 nM,"CCN(CC)CCCOc1ccc(/C(=C\[C@H]2CCC(O)C2)c2ccc(C3CC3)c(=O)[nH]2)cc1Cl (stereo partly drawn) [Example 1-87, 6-{(E)-1-{3-Chloro-4-[3-(diethylamino)propoxy]phenyl}-2-[(1S)-3-hydroxycyclopentyl]ethenyl}-3-cyclopropylpyridin-2(1H)-one]"
7,500 to 3000 nM,"COc1ccc(/C(=C\[C@H]2CC[C@@H](O)CC2)c2ccc(C3CC3)c(=O)[nH]2)cc1Cl [Example 1-88, 6-[(E)-1-(3-Chloro-4-methoxyphenyl)-2-(cis-4-hydroxycyclohexyl)ethenyl]-3-cyclopropylpyridin-2(1H)-one]"
8,500 to 3000 nM,"COc1ccc(/C(=C\[C@H]2CC[C@H](O)CC2)c2ccc(C3CC3)c(=O)[nH]2)cc1Cl [Example 1-89, 6-[(E)-1-(3-Chloro-4-methoxyphenyl)-2-(trans-4-hydroxycyclohexyl)ethenyl]-3-cyclopropylpyridin-2(1H)-one]"
